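Protocol summary: plate cells (96-well), add compound at 5 concentrations, incubate 48 h, interpolate endpoints linearly. GI50 marks 50% less growth. TGI denotes the concentration required for complete inhibition of growth.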
Assays:
Test in all cases: NCI tumour cell line growth inhibition, 48 h
786-0 renal = tested on: 786-0 renal
OVCAR-4 ovarian = tested on: OVCAR-4 ovarian
SF-539 CNS = tested on: SF-539 CNS
BT-549 breast = tested on: BT-549 breast
NCI-H23 lung = tested on: NCI-H23 lung
RXF 393 renal = tested on: RXF 393 renal
SNB-75 CNS = tested on: SNB-75 CNS
MALME-3M melanoma = tested on: MALME-3M melanoma
DU-145 prostate = tested on: DU-145 prostate
LOX IMVI melanoma = tested on: LOX IMVI melanoma

| SMILES | GI50 (786-0 renal) [µM] | TGI (786-0 renal) [µM] | GI50 (OVCAR-4 ovarian) [µM] | TGI (OVCAR-4 ovarian) [µM] | GI50 (SF-539 CNS) [µM] | TGI (SF-539 CNS) [µM] | GI50 (BT-549 breast) [µM] | TGI (BT-549 breast) [µM] | GI50 (NCI-H23 lung) [µM] | TGI (NCI-H23 lung) [µM] | GI50 (RXF 393 renal) [µM] | TGI (RXF 393 renal) [µM] | GI50 (SNB-75 CNS) [µM] | TGI (SNB-75 CNS) [µM] | GI50 (MALME-3M melanoma) [µM] | TGI (MALME-3M melanoma) [µM] | GI50 (DU-145 prostate) [µM] | TGI (DU-145 prostate) [µM] | GI50 (LOX IMVI melanoma) [µM] | TGI (LOX IMVI melanoma) [µM] |
| --- | --- | --- | --- | --- | --- | --- | --- | --- | --- | --- | --- | --- | --- | --- | --- | --- | --- | --- | --- | --- |
| O=C1/C(=C/c2ccc(F)c(F)c2)CN(C(=O)C(Cl)Cl)C/C1=C\c1ccc(F)c(F)c1 | 0.181 | 0.357 | 0.233 | 1.24 | 0.094 | 0.276 | 0.0837 | 0.34 | 0.139 | 0.428 | 0.182 | 0.399 | 0.29 | 1.3 | 0.199 | 0.539 | 0.312 | 0.925 | 0.0222 | 0.0549 |
| Nc1ncn(C2OC(COP(=O)(O)O)C(O)C2O)c(=O)n1 (configuration not stated) |  | > 100 |  | > 100 |  | > 100 |  | > 100 |  | > 100 |  | > 100 |  | > 100 |  | > 100 |  | > 100 |  | > 100 |
| COC1(OC)C2(Cl)C(Cl)=C(Cl)C1(Cl)C1c3ccc(C(C)=O)c4cccc(c34)C12 (configuration not stated) |  | > 100 |  | > 100 |  | > 100 |  | > 100 |  | > 83 |  | > 100 |  | > 89.9 |  | 58 |  | > 100 |  | > 100 |
| Cc1ccc(-c2c(C#N)[n+](=O)c3cc(F)c(F)cc3n2[O-])cc1 | 1.54 | 3.53 | 21.4 | 41.2 | 15.3 | 33.9 | 18.5 | 33.7 | 2.33 | 6.47 | 2.63 | 8.91 | 19.2 | 34.6 | 2.06 | 5.23 | 14.5 | 30.9 | > 100 | > 100 |
| O=C(O)C(Br)C(Br)C(=O)O (configuration not stated) |  | > 100 |  | > 100 |  | > 100 |  | > 100 |  | > 100 |  | > 100 |  | > 100 |  | > 100 |  | > 100 |  | > 100 |
| Cc1cc(C(=O)Nc2cc(Oc3ccc4nc(NC(=O)C5CC5)cn4n3)ccc2C)n(C)n1 | > 10 | > 10 | > 10 | > 10 | 3.35 | > 10 | 6.42 | > 10 | > 10 | > 10 | 7.46 | > 10 | > 10 | > 10 | > 10 | > 10 | > 10 | > 10 | > 10 | > 10 |
| Clc1ccccc1[C@@H]1C[C@@H]2Cc3cc(Br)c4ccccc4c3N1O2 | 5.2 | > 100 |  |  | 3.04 | > 100 | 6.8 | > 100 | 8.33 | > 100 | 1.73 | 4.92 | 3.51 | > 100 | 4.83 | > 100 | 5.59 | > 100 | 6.28 | > 100 |
| CC/C=C\C[C@H](O)C/C=C1/C(=O)C=C[C@@H]1C/C=C\CCCC(=O)OC(C)C | 1.9 | 3.72 | 2.92 | 14.4 |  |  | 1.25 | 3.51 | 1.73 | 4.37 | 1.76 | 3.27 | 4.78 | 19.7 | 1.64 | 3.75 | 3.05 | 11.9 | 0.18 | 0.41 |
| O=C1NC(=O)[C@@]2(CC[C@@H](O)C2)c2ccncc21 |  | > 100 |  | > 100 |  | > 100 |  | > 100 |  | > 100 |  | > 100 |  | > 100 |  | > 100 |  | > 100 |  | > 100 |
| Cc1ccc2[nH]c3c(c2c1)N=c1ccccc1=NO3 | 35 | > 100 | 27.9 | > 100 | 10.6 | 27.6 | 14.2 | 51.6 | 75.9 | > 100 | 47.6 | > 100 | 25.4 | > 100 | 20 | 54.1 | 34.6 | > 100 | 97.8 | > 100 |
| COc1ccc(C(C#N)=C2C=CC(=NO)C=C2)cc1 | 4.95 | 15.3 | 5.85 | 19.6 | 3.79 | 13.8 | 14.4 | 29 | 12.8 | 26.3 | 7.8 | 20.5 | 5.3 | 18.9 | 12.4 | 27.5 | 1.92 | 4.42 | 1.91 | 4.5 |
| COc1cc(OC)c(/C=C/C(=O)c2ccc(Nc3ncnc4ccccc34)cc2)c(OC)c1 | 1.47 | 3.55 | 1.21 | 3.05 | 0.837 | 2.31 | 1.04 | 3.62 | 0.843 | 11.5 | 0.488 | 1.95 | 0.305 | 1.55 | 0.799 | 2.65 | 1.45 | 3.42 | 1.06 | 6.52 |
| O=C(O)C1CCN(Cc2oc(CO)cc(=O)c2O)C1 (configuration not stated) |  | > 100 |  | > 100 |  |  |  | > 100 |  | > 100 |  | > 100 |  | > 100 |  | > 100 |  | > 100 |  | > 100 |
| CC(=Nc1ccccc1)C1=C(O)C(Cc2cccc(F)c2)NC1=O (configuration not stated) | 0.0857 | > 100 | 0.345 | > 100 | 0.0374 |  | 0.173 | > 100 | 0.101 | > 100 | 0.0186 | 0.0561 |  |  | 0.0419 | > 100 | 0.086 | 10.2 | 0.0667 | > 100 |

From PubChem BioAssay (NCI)
